Measured values taken from patent US9896454B2, “Microbiocidal heterobicyclic derivatives” (Syngenta Participations AG, priority 2014, dated 2018).

SMILES | melting point
CC1(C)N=C(c2cnc3c(Br)cnn3c2)c2cccc(F)c2C1(C)C [E 14] | 58 to 61 °C
CC1(C)N=C(c2cnc3c(C#N)cnn3c2)c2cccc(F)c2C1(C)C [E 16] | 179 to 182 °C
Cc1cccc2c1CC(C)(C)N=C2c1cnc2nccn2c1 [E 30] | 157 to 158 °C
Cc1cc2ncc(C3=NC(C)(C)C(C)(C)c4c(F)cccc43)cn2n1 [E 12] | 180 to 190 °C
Cc1cnn2cc(C3=NC(C)(C)C(C)(C)c4c(F)cccc43)cnc12 [E 15] | 126 to 128 °C
Cc1cnn2cc(C3=NC(C)(C)C(F)(F)c4c(F)cccc43)cnc12 [E 22] | 135 to 138 °C
CC1(C)N=C(c2cnc3c(Br)cc(Br)n3c2)c2cccc(F)c2C1(C)C [E 39] | 141 to 143 °C
Cc1nn2cc(C3=NC(C)(C)C(C)(C)c4c(F)cccc43)cnc2c1C [E 25] | 136 to 139 °C
Cc1nn2cc(C3=NC(C)(C)C(C)(C)c4c(F)cccc43)cnc2c1Br [E 13] | 132 to 134 °C
CC1(C)Cc2c(Cl)cccc2C(c2cnc3ccnn3c2)=N1 [E 10] | 105 °C
CC1(C)N=C(c2cnc3ccc(Br)n3c2)c2cccc(F)c2C1(C)C [E 4] | 166 to 167 °C
CSc1nn2cc(C3=NC(C)(C)C(C)(C)c4c(F)cccc43)cnc2c1C#N [E 20] | 112 to 114 °C
CC1(C)Cc2c(F)cccc2C(c2cnc3c(Br)cnn3c2)=N1 [E 17, 1-(3-bromopyrazolo[1,5-a]pyrimidin-6-yl)-5-fluoro-3,3-dimethyl-4H-isoquinoline] | 121 to 123 °C
CC1(C)Cc2c(F)cccc2C(c2cnc3ccnn3c2)=N1 [E 9] | 159 to 160 °C
CC1(C)Cc2c(F)cccc2C(c2cnc3nccn3c2)=N1 [E 28] | 227 to 229 °C
COc1ccc2ncc(C3=NC(C)(C)C(C)(C)c4c(F)cccc43)cn12 [E 1] | 120 to 122 °C

Now from value to compound:

melting point | SMILES
164 to 166 °C | CC1(C)N=C(c2cnc3c(Br)cnn3c2)c2cccc(F)c2C1(F)F [E 21, 1-(3-bromopyrazolo[1,5-a]pyrimidin-6-yl)-4,4,5-trifluoro-3,3-dimethyl-isoquinoline]
215 to 217 °C | CC1(C)N=C(c2cnc3c(C#N)cnn3c2)c2cccc(F)c2C1(F)F [E 24, 6-(4,4,5-trifluoro-3,3-dimethyl-1-isoquinolyl)pyrazolo[1,5-a]pyrimidine-3-carbonitrile]
176 to 178 °C | Cc1nn2cc(C3=NC(C)(C)C(C)(C)c4c(F)cccc43)cnc2c1C#N [E 23]
201 to 203 °C | CC1(C)N=C(c2cnc3c(Br)cnn3c2)c2cccc(F)c2C1=O [E 19, 1-(3-bromopyrazolo[1,5-a]pyrimidin-6-yl)-5-fluoro-3,3-dimethyl-isoquinolin-4-one]
130 to 134 °C | CC1(C)N=C(c2cnc3cccn3c2)c2cccc(F)c2C1(C)C [E 2, 5-fluoro-3,3,4,4-tetramethyl-1-pyrrolo[1,2-a]pyrimidin-3-yl-isoquinoline]
240 to 242 °C | CC1(C)N=C(c2cnc3nccn3c2)c2cccc(F)c2C1(C)C [E 27]
134 to 136 °C | CC1(C)N=C(c2cnc3nc(Br)cn3c2)c2cccc(F)c2C1(C)C [E 31]
198 to 200 °C | CC1(C)N=C(c2cnc3c(F)cnn3c2)c2cccc(F)c2C1(C)C [E 26]
